Assay results from US8926961B2, “HPV E6 protein T cell epitopes and uses thereof” (Board Of Trustees of The University Of Arkansas, priority 2007, dated 2015).

Columns and labels:
[1] = tested on: HPV 16 E6 peptide-specific T-cell clones (subject 2); format: cell-based, human; conditions: for enzyme-linked immunospot response to individual 15-mer peptides: eight screen-positive T-cell clones of subject 2, autologous EBV B-LCL, peptide 10 μM
[2] = tested on: CD4+ T-cell; assay: Interferon-γ ELISPOT assay of CD4+ T-cell responses in subjects with abnormal Pap smear; format: cell-based, human
Method: The role of CD4+ T-cell responses to the HPV-16 E6 and E7 proteins was examined in the outcomes of subjects being studied for abnormal Papanicolaouu (Pap) smear results. Subjects with a recent history of abnormal Papanicolaouu smear were eligible, and colposcopy guided biopsy was performed at enrollment. Interferon-γ enzyme-linked immunospot assay, and fluorescent activated cell sorter analysis were performed. Subjects with histological diagnoses of cervical intraepithelial neoplasia 1, 2, or 3 were considered to have short-term persistence of cervical abnormality and were called “persistors” (n=51) while those of normal histology were designated to be “regressors” (n=33). For the CD4+ T-cell responses, not only were the responses to E6 overall (Table 8) associated with a favorable clinical outcome, but also to a number of regions within the E6 protein. Furthermore, the regressors were more likely to have 2 or more E6-positive or E7-positive peptide regions as compared to the persistors (p=0.0035 or p=0.042 respectively) (Table 9).

[3] = high-risk HPV-positive subjects
[4] = subjects positive for HPV-16 related types

Substance | enzyme-linked immunospot response to individual 15-mer peptides [1] | CD4+ T-cell responses, persistors [2, 3] [%] | CD4+ T-cell responses, regressors [2, 3] [%] | CD4+ T-cell responses, persistors [2, 4] [%] | CD4+ T-cell responses, regressors [2, 4] [%] | also measured
E6 61-75: 15-mer peptide of the HPV 16 E6 protein, residues 61-75 (YRDGNPYAVCDKCLK; UniProt P03126 61-75, looked up, fragment) | not |  |  |  |  | 
E6 66-80: 15-mer peptide of the HPV 16 E6 protein, residues 66-80 (PYAVCDKCLKFYSKI; UniProt P03126 66-80, looked up, fragment) | not |  |  |  |  | 
E6 71-85: 15-mer peptide of the HPV 16 E6 protein, residues 71-85 (DKCLKFYSKISEYRH; UniProt P03126 71-85, looked up, fragment) | positive |  |  |  |  | 
E6 74-83: 10-mer peptide surrounding the E6 75-83 peptide (LKFYSKISEY; UniProt P03126 74-83, looked up, fragment) |  |  |  |  |  | serial dilution of the two peptides in enzyme-linked immunospot assay ([1]; 10^−5M to 10^−10M): equivalent; number of spot forming units, 9-mer compared with surrounding 10-mers and 8-mers within ([1]; subject 2 T-cell clones): comparable number of spot forming units
E6 (1-25): peptide region within the HPV-16 E6 protein examined by ELISPOT (MHQKRTAMFQDPQERPRKLPQLCTE; UniProt P03126 1-25, looked up, fragment) |  | 2 | 18 | 0 | 17 | 
E6 (31-55): peptide region within the HPV-16 E6 protein examined by ELISPOT (HDIILECVYCKQQLLRREVYDFAFR; UniProt P03126 31-55, looked up, fragment) |  |  |  |  |  | CD4+ T-cell responses, persistors ([2]; all subjects): 6%; CD4+ T-cell responses, regressors ([2]; all subjects): 21%
E6 (61-85): peptide region within the HPV-16 E6 protein examined by ELISPOT (YRDGNPYAVCDKCLKFYSKISEYRH; UniProt P03126 61-85, looked up, fragment) |  | 0 | 14 | 0 | 17 | CD4+ T-cell responses, persistors ([2]; all subjects): 0%; CD4+ T-cell responses, regressors ([2]; all subjects): 12%
E6 (106-130): peptide region within the HPV-16 E6 protein examined by ELISPOT (LLIRCINCQKPLCPEEKQRHLDKKQ; UniProt P03126 106-130, looked up, fragment) |  | 4 | 27 | 3 | 28 | 
E6 (136-158): peptide region within the HPV-16 E6 protein examined by ELISPOT (RGRWTGRCMSCCRSSRTRRETQL; UniProt P03126 136-158, looked up, fragment) |  | 2 | 18 | 0 | 17 | 
